Among the test systems are Escherichia coli; Escherichia coli JW0013; Escherichia coli J2210; Escherichia coli MC1041; Escherichia coli JJ2489; Escherichia coli BW25113; Escherichia coli JW55034; Klebsiella pneumoniae; Bacillus subtilis DB430; Micrococcus sp. S1.634; Pseudomonas aeruginosa; Staphylococcus aureus.
Holding throughout (test): ≥ marks a high value that may be exact or a test limit, other limits are often not marked, values filed in µg/mL are converted to µM
The subject of assay [1] is Salmonella enterica subsp. enterica serovar Infantis.
Assay [2] relates to Escherichia coli JW2778 ΔygdD.
The test system of assay [3] is Salmonella enterica subsp. enterica serovar Newport.
The test system of assay [4] is Escherichia coli JW0368 ΔsbmA.
Assay [5] deals with Salmonella enterica serovar Tennessee.
Assay [6] deals with Salmonella enterica subsp. enterica serovar Enteritidis MH91989.
Assay [7] deals with Salmonella typhimurium SL1344.
The subject of assay [8] is Klebsiella aerogenes St. L P63.
Assay [9] has as its system Acinetobacter baumannii Josh 230.
Assay [10] has as its system Acinetobacter baumannii Josh 28.
In assay [11] the test system is Klebsiella pneumoniae Oschner KP-1.
Assay [12] has as its system Escherichia coli ATCC 25922.
Assay [13] relates to Enterobacter cloacae BB2012-181.
Assay [14] relates to Enterobacter cloacae BB2013-32.
Assay [15] has as its system Klebsiella pneumoniae BB2009-209.
The test system of assay [16] is Pseudomonas aeruginosa J4228.
Assay [17] relates to Enterobacter asburiae St. L P23.
Assay [18] relates to Escherichia coli ARLG-1012.
Assay [19] concerns Pseudomonas aeruginosa BB2013-100.
The test system of assay [20] is Klebsiella pneumoniae J3702.
For assay [21], the system named is Pseudomonas aeruginosa ATCC 27853.
For assay [22], the system named is Escherichia coli BB2013-30.
The subject of assay [23] is Enterobacter cloacae St. L P23.
For assay [24], the system named is Cryptococcus neoformans ATCC 32045.
For assay [25], the system named is Candida albicans ATCC 10231.
For assay [26], the system named is Pseudomonas aeruginosa ATCC 10145.
The test system of assay [27] is Staphylococcus aureus ATCC 33591.
The test system of assay [28] is Escherichia coli ATCC 2592.
In assay [29] the test system is Klebsiella pneumoniae CMCC 46117.
The subject of assay [30] is Micrococcus luteus CMCC 28001.
The test system of assay [31] is Acinetobacter baumannii b-02.
For assay [32], the system named is Acinetobacter baumannii b-01.
Assay [33] relates to Pseudomonas aeruginosa CMCC 10104.
Assay [34] concerns Bacillus pumilus CMCC 63202.
Assay [35] relates to Staphylococcus epidermidis.
Assay [36] concerns Escherichia coli ATCC 8099.
Assay [37] has as its system Staphylococcus aureus CMCC 26003.
The subject of assay [38] is Acinetobacter baumannii b-03.
The subject of assay [39] is Salmonella enterica subsp. enterica serovar Paratyphi B CMCC 50094.
Assay [40] has as its system Acinetobacter baumannii b-04.

≈ marks a conversion by molar mass, not a printed value. Where “and” joins values, the source holds several entries; their conditions need not be identical. Equal values may be shown once.

Broadly, the MIC is the lowest concentration that inhibits growth of the organism. High values mean a need for much substance, low ones inhibition by little substance. As for `CC(C)C[C@H](NC(=O)[C@H](CCCN=C(N)N)NC(=O)[C@@H]1CCCN1C(=O)[C@H](Cc1cnc[nH]1)NC(=O)[C@@H]1CCCN1C(=O)[C@@H]1CCCN1C(=O)[C@H](CCCN=C(N)N)NC(=O)[C@@H]1CCCN1C(=O)[C@H](CCC(N)=O)NC(=O)[C@@H]1CCCN1C(=O)[C@H](CCCN=C(N)N)NC(=O)[C@H](Cc1ccc(O)cc1)NC(=O)[C@@H](NC(=O)[C@@H]1CCCN1C(=O)[C@H](CCCCN)NC(=O)[C@H](CC(N)=O)NC(=O)[C@H](CC(N)=O)NC(=O)CN)C(C)C)C(=O)O` [GNNKPVYRPQPRPPHPRL], the MIC in [1] was 0.024 µM (≈ 0.051 µg/mL); in the assay on Escherichia coli, 0.048 µM (≈ 0.102 µg/mL); against Escherichia coli JW0013 it was 0.012 µM (≈ 0.0255 µg/mL); in assay [2] it was 0.024 µM (≈ 0.051 µg/mL); in [3] it was 0.017 µM (≈ 0.0361 µg/mL); in assay [4], 0.096 µM (≈ 0.204 µg/mL). In addition, the MIC worked out at 0.024 µM (≈ 0.051 µg/mL) in [5]; 0.031 µM (≈ 0.0658 µg/mL) in assay [6]; 0.034 µM (≈ 0.0722 µg/mL) in assay [7]; 0.034 µM (≈ 0.0722 µg/mL) against Escherichia coli J2210; 0.024 µM (≈ 0.051 µg/mL) against Escherichia coli MC1041; 0.034 µM (≈ 0.0722 µg/mL) in the assay with Escherichia coli JJ2489.
As for `CC[C@H](C)[C@H](NC(=O)[C@H](CCCCN)NC(=O)[C@H](CCCCN)NC(=O)[C@@H](NC(=O)[C@H](C)NC(=O)[C@H](CCCCN)NC(=O)[C@@H](NC(=O)[C@@H](NC(=O)[C@H](CC(C)C)NC(=O)[C@H](CCCCN)NC(=O)[C@H](C)NC(=O)[C@H](Cc1c[nH]c2ccccc12)NC(=O)CN)[C@@H](C)CC)[C@@H](C)O)[C@@H](C)CC)C(N)=O` [GWAKLITKAIKKI], the MIC is 10.9 µM (≈ 16 µg/mL) in assay [8]; 10.9 µM (≈ 16 µg/mL) in assay [9]; 2.72 µM (≈ 4 µg/mL) in [10]; 21.8 µM (≈ 32 µg/mL) in assay [11]; 12 µM and 24.1 µM in assay [12]; 10.9 µM (≈ 16 µg/mL) in assay [13]. The MIC in assay [14] is 10.9 µM (≈ 16 µg/mL); in assay [15], 21.8 µM (≈ 32 µg/mL); in assay [16] it was 10.9 µM (≈ 16 µg/mL); in assay [17], 21.8 µM (≈ 32 µg/mL); with Escherichia coli BW25113 it was 2.72 µM (≈ 4 µg/mL); with Escherichia coli JW55034, 2.72 µM (≈ 4 µg/mL). Besides, the MIC in [18] was 2.72 µM (≈ 4 µg/mL); in assay [19], 21.8 µM (≈ 32 µg/mL); in assay [20], 10.9 µM (≈ 16 µg/mL); in [21], 5.44 µM (≈ 7.99 µg/mL); in assay [22] it was 5.44 µM (≈ 7.99 µg/mL); in [23], 21.8 µM (≈ 32 µg/mL).
As for `NCCCC[C@H](NC(=O)[C@H](Cc1ccccc1)NC(=O)[C@H](CCCCN)NC(=O)[C@H](CCCCN)NC(=O)[C@H](Cc1ccccc1)NC(=O)[C@H](CCCCN)NC(=O)[C@H](CCCCN)NC(=O)[C@H](Cc1ccccc1)NC(=O)[C@H](CCCCN)NC(=O)[C@H](CCCCN)NC(=O)[C@H](Cc1ccccc1)NC(=O)[C@H](CCCCN)NC(=O)[C@H](CCCCN)NC(=O)[C@H](Cc1ccccc1)NC(=O)[C@H](CCCCN)NC(=O)[C@H](CCCCN)NC(=O)[C@H](Cc1ccccc1)NC(=O)[C@H](CCCCN)NC(=O)[C@H](CCCCN)NC(=O)[C@H](Cc1ccccc1)NC(=O)[C@H](CCCCN)NC(=O)[C@H](CCCCN)NC(=O)[C@H](Cc1ccccc1)NC(=O)[C@@H](N)CCCCN)C(=O)O` [KFKKFKKFKKFKKFKKFKKFKKFK], the MIC in [24] is 15.3 µM (≈ 49.8 µg/mL); in assay [25], 54.5 µM (≈ 177 µg/mL); in assay [26], at least 77 µM; in [27], at least 77 µM; in assay [28], 13.7 µM (≈ 44.5 µg/mL).
Consider `CC[C@H](C)[C@H](NC(=O)[C@H](Cc1ccccc1)NC(=O)[C@H](CO)NC(=O)[C@H](CCCCN)NC(=O)[C@H](Cc1c[nH]c2ccccc12)NC(=O)[C@@H](N)CCCCN)C(=O)N[C@@H](CCCCN)C(=O)N[C@@H](CCCCN)C(=O)N[C@@H](CC(C)C)C(=O)N[C@H](C(=O)N[C@@H](CCCCN)C(=O)N[C@@H](CCCCN)C(=O)N[C@@H](Cc1ccccc1)C(=O)N[C@@H](CC(C)C)C(=O)N[C@@H](Cc1cnc[nH]1)C(=O)N[C@@H](CO)C(=O)N[C@@H](C)C(=O)N[C@@H](CCCCN)C(=O)N[C@@H](CCCCN)C(=O)N[C@@H](Cc1ccccc1)C(N)=O)[C@@H](C)O` [KWKSFIKKLTKKFLHSAKKF], for which the MIC in assay [29] was found to be 0.802 µM (≈ 2 µg/mL); against Klebsiella pneumoniae it was 0.567 µM (≈ 1.41 µg/mL); in assay [30] it was 0.802 µM (≈ 2 µg/mL); in assay [31], 1.25 µM (≈ 3.12 µg/mL); in [32], 0.321 µM (≈ 0.8 µg/mL); in the assay with Bacillus subtilis DB430, 0.802 µM (≈ 2 µg/mL). The MIC against Micrococcus sp. S1.634 is 0.401 µM (≈ 1 µg/mL); in [33], 1.6 µM (≈ 4 µg/mL); in [34], 0.201 µM (≈ 0.5 µg/mL); against Pseudomonas aeruginosa it was 0.641 µM and 1.13 µM; in assay [35] it was 0.802 µM (≈ 2 µg/mL); in [36] it was 0.201 µM (≈ 0.5 µg/mL). Further, the MIC against Staphylococcus aureus is 0.401 µM (≈ 1 µg/mL); in assay [37] it was 0.201 µM (≈ 0.5 µg/mL); in assay [38], 1.3 µM (≈ 3.25 µg/mL); in assay [39], 0.802 µM (≈ 2 µg/mL); in assay [40], 0.641 µM (≈ 1.6 µg/mL).

Source of the values: DBAASP.
